Columns and labels:
[1] = cn = amount concentration of the nth substance listed, in mol/dm3; details: 101 kPa, Liquid, Alternating current cell with electrodes
[2] = mn = molality of the nth substance listed, in mol/kg; details: 298.15 K, 101 kPa, Liquid, Vibrating tube method

CCOS(=O)(=O)[O-].CCn1cc[n+](C)c1 [1-ethyl-3-methylimidazolium ethyl sulfate] + ClCCl
molar conductivity [S·m2/mol], [1]
Details | 273.15 K | 278.15 K | 283.15 K | 288.15 K | 293.15 K | 298.15 K | 303.15 K | 308.15 K
c1 = 0.5399 | 0.0004064 | 0.0004194 | 0.0004324 | 0.0004454 | 0.0004554 | 0.000462 | 0.000471 | 0.0004771
c1 = 0.8656 | 0.0003364 | 0.0003471 | 0.0003579 | 0.0003684 | 0.0003768 | 0.0003829 | 0.0003904 | 0.0003958
c1 = 1.152 | 0.0003033 | 0.0003131 | 0.0003228 | 0.0003322 | 0.0003398 | 0.0003455 | 0.0003521 | 0.0003571
c1 = 1.504 | 0.0002764 | 0.0002855 | 0.0002943 | 0.0003028 | 0.0003098 | 0.0003152 | 0.0003212 | 0.0003258
c1 = 1.808 | 0.0002603 | 0.0002689 | 0.0002772 | 0.0002852 | 0.0002918 | 0.0002971 | 0.0003029 | 0.0003073
c1 = 2.099 | 0.0002493 | 0.0002575 | 0.0002653 | 0.000273 | 0.0002794 | 0.0002845 | 0.00029 | 0.0002942
c1 = 2.376 | 0.0002409 | 0.0002489 | 0.0002566 | 0.000264 | 0.0002702 | 0.0002753 | 0.0002806 | 0.0002849
c1 = 2.723 | 0.0002334 | 0.0002412 | 0.0002486 | 0.0002557 | 0.0002618 | 0.0002668 | 0.000272 | 0.0002762
c1 = 3.074 | 0.0002276 | 0.0002352 | 0.0002425 | 0.0002494 | 0.0002554 | 0.0002604 | 0.0002655 | 0.0002698
c1 = 3.333 | 0.000224 | 0.0002315 | 0.0002387 | 0.0002455 | 0.0002514 | 0.0002564 | 0.0002615 | 0.0002657
c1 = 3.607 | 0.0002213 | 0.0002288 | 0.0002359 | 0.0002427 | 0.0002488 | 0.0002538 | 0.0002588 | 0.000263
c1 = 3.931 | 0.000219 | 0.0002264 | 0.0002334 | 0.0002401 | 0.0002459 | 0.000251 | 0.000256 | 0.0002601

CCOS(=O)(=O)[O-].CCn1cc[n+](C)c1 [1-ethyl-3-methylimidazolium ethyl sulfate] + O
molar conductivity [S·m2/mol], [1]
Details | c1 = 0.6368 | c1 = 1.07 | c1 = 1.527 | c1 = 1.991 | c1 = 2.48 | c1 = 3.114 | c1 = 3.767 | c1 = 4.385 | c1 = 5.086
278.15 K | 0.00496 | 0.0049391 | 0.0049163 | 0.004892 | 0.004877 | 0.0048486 | 0.0048261 | 0.00479 | 0.004783
283.15 K | 0.0057155 | 0.00569 | 0.005664 | 0.0056374 | 0.0056159 | 0.005585 | 0.005559 | 0.0055336 | 0.0055088
288.15 K | 0.0065118 | 0.00648 | 0.0064496 | 0.0064206 | 0.006395 | 0.00636 | 0.0063311 | 0.0063021 | 0.006274
293.15 K | 0.0073408 | 0.0073039 | 0.007271 | 0.0072366 | 0.0072073 | 0.007169 | 0.007135 | 0.0071023 | 0.007071
298.15 K | 0.0082055 | 0.008163 | 0.008125 | 0.008088 | 0.008054 | 0.0080112 | 0.007974 | 0.0079372 | 0.0079028
303.15 K | 0.009098 | 0.009052 | 0.0090088 | 0.008967 | 0.00893 | 0.008882 | 0.0088395 | 0.008799 | 0.008761
308.15 K | 0.010022 | 0.00997 | 0.0099213 | 0.009875 | 0.0098348 | 0.009782 | 0.0097357 | 0.009689 | 0.0096453
313.15 K | 0.01096 | 0.01092 | 0.01086 | 0.01081 | 0.01076 | 0.01071 | 0.01066 | 0.01061 | 0.01056

[2]
Details | mass density [kg/m3]
m1 = 0.005086 | 997.281
m1 = 0.06934 | 1000.11
